Assays:
Type in all cases: cell-based, human
[1] = test system: AsPC-1 (K-Ras G12D); experiment: Potency assay: pERK; details: Homo sapiens, ASPC1, read-out: pERK EC50
Description: The purpose of this assay is to measure the ability of test compounds to inhibit K-Ras in cells. […] This procedure measures a decrease in cellular pERK in response to test compounds. The procedure described below in NCI-H358 cells is applicable to K-Ras G12C.
NCI-H358 cells were grown and maintained using media and procedures recommended by the ATCC. On the day prior to compound addition, cells were plated in 384-well cell culture plates (40 μl/well) and grown overnight in a 37° C., 5% CO2 incubator. Test compounds were prepared in 10, 3-fold dilutions in DMSO, with a high concentration of 10 mM. On the day of assay, 40 nL of test compound was added to each well of cell culture plate using an Echo550 liquid handler (LabCyte®). Concentrations of test compound were tested in duplicate. After compound addition, cells were incubated 4 hours at 37° C., 5% CO2. Following incubation, culture medium was removed and cells were washed once with phosphate buffered saline.
In some experiments, cellular pERK level was determined using the AlphaLISA SureFire Ultra p-ERK1/2 Assay Kit (PerkinElmer). Cells were lysed in 25 μL lysis buffer, with shaking at 600 RPM at room temperature. Lysate (10 μL) was transferred to a 384-well Opti-plate (PerkinElmer) and 5 μL acceptor mix was added. After a 2-hour incubation in the dark, 5 μL donor mix was added, plate was sealed, and incubated 2 hours at room temperature. Signal was read on an Envision plate reader (PerkinElmer) using standard AlphaLISA settings. Analysis of raw data was carried out in Excel (Microsoft) and Prism (GraphPad). Signal was plotted vs. the decadal logarithm of compound concentration, and IC50 was determined by fitting a 4-parameter sigmoidal concentration response model.
In other experiments, cellular pERK was determined by In-Cell Western. Following compound treatment, cells were washed twice with 200 μL tris buffered saline (TBS) and fixed for 15 minutes with 150 μL 4% paraformaldehyde in TBS. Fixed cells were washed 4 times for 5 minutes with TBS containing 0.1% Triton X-100 (TBST) and then blocked with 100 μL Odyssey blocking buffer (LI-COR) for 60 minutes at room temperature. Primary antibody (PERK, CST-4370, Cell Signaling Technology) was diluted 1:200 in blocking buffer, and 50 μL was added to each well and incubated overnight at 4° C. Cells were washed 4 times for 5 minutes with TBST. Secondary antibody (IR-800CW rabbit, LI-COR, diluted 1:800) and DNA stain DRAQ5 (LI-COR, diluted 1:2000) were added and incubated 1-2 hours at room temperature. Cells were washed 4 times for 5 minutes with TBST. Plates were scanned on a Li—COR Odyssey CLx Imager. Analysis of raw data was carried out in Excel (Microsoft) and Prism (GraphPad). Signal was plotted vs. the decadal logarithm of compound concentration, and IC50 was determined by fitting a 4-parameter sigmoidal concentration response model.

[2] = test system: AsPC-1 (K-Ras G12D); experiment: CellTiter-Glo cell viability assay, AsPC-1; details: Homo sapiens, ASPC1, 120 h, read-out: AsPC-1 Cell Viability IC50
Description: (§1) Note—The following protocol describes a procedure for monitoring cell viability of K-Ras mutant cancer cell lines in response to a compound of the invention. Other RAS isoforms may be employed, though the number of cells to be seeded will vary based on cell line used.
(§2) Test compounds (132.5 nL) were directly dispensed into the assay plates containing cells. […] On day 5, assay plates and their contents were equilibrated to room temperature for approximately 30 minutes. […] Luminescence was measured using the PerkinElmer Enspire. Data were normalized by the following: (Sample signal/Avg. DMSO)*100. The data were fit using a four-parameter logistic fit.

[3] = test system: NCI-H358 (K-Ras G12C); experiment: CellTiter-Glo cell viability assay, H358; details: Homo sapiens, NCI-H358, 120 h, read-out: H358 Cell Viability IC50, K-Ras G12C, 5-day treatment
Description: as §1, §2

Row | SMILES | EC50 [1] | IC50 [2] | IC50 [3]
1 | CCn1c(-c2cnccc2COC)c2c3cc(ccc31)-c1cc(O)cc(c1)C[C@H](NC(=O)[C@H](C(C)C)N(C)C(=O)CN(C)C(=O)[C@H]1CN1)C(=O)N1CCC[C@H](N1)C(=O)OCC(C)(C)C2 [Example 7, (2R)—N-(2-(((2S)-1-(((6^3S,4S)-1^1-ethyl-25-hydroxy-1^2-(4-(methoxymethyl)pyridin-3-yl)-10,10-dimethyl-5,7-dioxo-6^1,6^2,6^3,6^4,6^5,6^6-hexahydro-1^1H-8-oxa-1 (5,3)-indola-6 (1,3)-pyridazina-2 (1,3)-benzenacycloundecaphane-4-yl)amino)-3-methyl-1-oxobutan-2-yl) (methyl)amino)-2-oxoethyl)-N-methylaziridine-2-carboxamide] | < 5000 nM | 100 to 1000 nM | 10 to 100 nM
2 | CCn1c(-c2cnccc2COC)c2c3cc(ccc31)-c1cc(O)cc(c1)C[C@H](NC(=O)[C@H](C(C)C)N(C)C(=O)CN(C)C(=O)[C@H]1CN1Cc1ccccc1)C(=O)N1CCC[C@H](N1)C(=O)OCC(C)(C)C2 (stereo partly drawn) [Example 9] | < 5000 nM | 1000 to 10000 nM | 10 to 100 nM
3 | CCn1c(-c2cnccc2COC)c2c3cc(ccc31)-c1cc(O)cc(c1)C[C@H](NC(=O)[C@H](C(C)C)N(C)C(=O)CN(C)C(=O)[C@@H]1CN1Cc1ccccc1)C(=O)N1CCC[C@H](N1)C(=O)OCC(C)(C)C2 (stereo partly drawn) [Example 10] | < 5000 nM | 1000 to 10000 nM | 10 to 100 nM
4 | CCn1c(-c2cnccc2COC)c2c3cc(ccc31)-c1cc(O)cc(c1)C[C@H](NC(=O)[C@H](C(C)C)N(C)C(=O)CN(C)C(=O)C1CN1)C(=O)N1CCC[C@H](N1)C(=O)OCC(C)(C)C2 (stereo partly drawn) [Example 33] | < 5000 nM | – | 10 to 100 nM
5 | CCn1c(-c2cnccc2COC)c2c3cc(ccc31)-c1cc(O)cc(c1)C[C@H](NC(=O)[C@H](C(C)C)N(C)C(=O)CN(C)C(=O)[C@@H]1N[C@@H]1C(=O)OC)C(=O)N1CCC[C@H](N1)C(=O)OCC(C)(C)C2 [Example 49, methyl (2S,3R)-3-((2-(((2S)-1-(((6^3S,4S)-1^1-ethyl-25-hydroxy-1^2-(4-(methoxymethyl)pyridin-3-yl)-10,10-dimethyl-5,7-dioxo-6^1,6^2,6^3,6^4,6^5,6^6-hexahydro-1^1H-8-oxa-1 (5,3)-indola-6 (1,3)-pyridazina-2 (1,3)-benzenacycloundecaphane-4-yl)amino)-3-methyl-1-oxobutan-2-yl) (methyl)amino)-2-oxoethyl) (methyl)carbamoyl) aziridine-2-carboxylate] | < 5000 nM | 1000 to 10000 nM | 1000 to 10000 nM
6 | CCn1c(-c2cccnc2[C@H](C)OC)c2c3cc(ccc31)-c1cc(O)cc(c1)C[C@H](NC(=O)[C@H](C(C)C)N(C)C(=O)CN(C)C(=O)[C@@H]1N[C@H]1COC)C(=O)N1CCC[C@H](N1)C(=O)OCC(C)(C)C2 [Example 85] | < 5000 nM | 1000 to 10000 nM | 10 to 100 nM
7 | CCn1c(-c2cccnc2[C@H](C)OC)c2c3cc(ccc31)-c1cc(O)cc(c1)C[C@H](NC(=O)[C@H](C(C)C)N(C)C(=O)CN(C)C(=O)C1CN1CCOC)C(=O)N1CCC[C@H](N1)C(=O)OCC(C)(C)C2 (stereo partly drawn) [Example 90] | < 5000 nM | 100 to 1000 nM | < 10 nM
8 | CCn1c(-c2cccnc2[C@H](C)OC)c2c3cc(ccc31)-c1cc(O)cc(c1)C[C@H](NC(=O)[C@H](C1CCCC1)N(C)C(=O)CN(C)C(=O)[C@H]1CN1)C(=O)N1CCC[C@H](N1)C(=O)OCC(C)(C)C2 [Example 95, (2R)—N-(2-(((1S)-1-cyclopentyl-2-(((6^3S,4S)-1^1-ethyl-25-hydroxy-1^2-(2-((S)-1-methoxyethyl)pyridin-3-yl)-10,10-dimethyl-5,7-dioxo-61,62,63,64,65,66-hexahydro-1^1H-8-oxa-1 (5,3)-indola-6 (1,3)-pyridazina-2 (1,3)-benzenacycloundecaphane-4-yl)amino)-2-oxoethyl) (methyl)amino)-2-oxoethyl)-N-methylaziridine-2-carboxamide] | < 5000 nM | 10 to 100 nM | < 10 nM
9 | CCn1c(-c2cccnc2[C@H](C)OC)c2c3cc(ccc31)-c1cc(O)cc(c1)C[C@H](NC(=O)[C@H](C(C)C)N(C)C(=O)[C@H](C)N(C)C(=O)[C@H]1CN1)C(=O)N1CCC[C@H](N1)C(=O)OCC(C)(C)C2 [Example 102] | < 5000 nM | 100 to 1000 nM | 10 to 100 nM
10 | CCn1c(-c2cccnc2[C@H](C)OC)c2c3cc(ccc31)-c1cccc(c1)C[C@H](NC(=O)[C@H](C(C)C)N(C)C(=O)CN(C)C(=O)[C@H]1CN1)C(=O)N1CCC[C@H](N1)C(=O)OCC(C)(C)C2 [Example 107] | < 5000 nM | 1000 to 10000 nM | 100 to 1000 nM
11 | CCn1c(-c2cccnc2[C@H](C)OC)c2c3cc(ccc31)-c1cc(O)cc(c1)C[C@H](NC(=O)[C@H](C(C)C)N(C)C(=O)CN(C)C(=O)[C@H]1CN1CCCN1CCCC1=O)C(=O)N1CCC[C@H](N1)C(=O)OCC(C)(C)C2 (stereo partly drawn) [Example 268, (2R)—N-(2-(((2S)-1-(((6^3S,4S)-1^1-ethyl-25-hydroxy-1^2-(2-((S)-1-methoxyethyl)pyridin-3-yl)-10,10-dimethyl-5,7-dioxo-6^1,6^2,6^3,6^4,6^5,6^6-hexahydro-1^1H-8-oxa-1 (5,3)-indola-6 (1,3)-pyridazina-2 (1,3)-benzenacycloundecaphane-4-yl)amino)-3-methyl-1-oxobutan-2-yl) (methyl)amino)-2-oxoethyl)-N-methyl-1-(3-(2-oxopyrrolidin-1-yl)propyl) aziridine-2-carboxamide] | < 5000 nM | 1000 to 10000 nM | –
12 | CCn1c(-c2cccnc2[C@H](C)OC)c2c3cc(ccc31)-c1cc(O)cc(c1)C[C@H](NC(=O)[C@H](C(C)C)N(C)C(=O)CN(C)C(=O)[C@@H]1CN1CC(=O)N(C)C)C(=O)N1CCC[C@H](N1)C(=O)OCC(C)(C)C2 (stereo partly drawn) [Example 271] | < 5000 nM | > 10000 nM | –
13 | CCn1c(-c2cccnc2[C@H](C)OC)c2c3cc(ccc31)-c1cc(O)cc(c1)C[C@H](NC(=O)[C@H](C(C)C)N(C)C(=O)CN(C)C(=O)[C@H]1CN1CCCN1CCOC1=O)C(=O)N1CCC[C@H](N1)C(=O)OCC(C)(C)C2 (stereo partly drawn) [Example 272] | < 5000 nM | 1000 to 10000 nM | –
14 | CCn1c(-c2cccnc2[C@H](C)OC)c2c3cc(ccc31)-c1cc(O)cc(c1)C[C@H](NC(=O)[C@H](C(C)C)N(C)C(=O)CN(C)C(=O)[C@H]1CN1C1COC1)C(=O)N1CCC[C@H](N1)C(=O)OCC(C)(C)C2 (stereo partly drawn) [Example 275] | < 5000 nM | 1000 to 10000 nM | –
15 | CCn1c(-c2cccnc2[C@H](C)OC)c2c3cc(ccc31)-c1cc(O)cc(c1)C[C@H](NC(=O)[C@H](C(C)C)N(C)C(=O)CN(C)C(=O)[C@@H]1CN1CC1COC1)C(=O)N1CCC[C@H](N1)C(=O)OCC(C)(C)C2 (stereo partly drawn) [Example 278] | < 5000 nM | 1000 to 10000 nM | –
16 | CCn1c(-c2cccnc2[C@H](C)OC)c2c3cc(ccc31)-c1cc(O)cc(c1)C[C@H](NC(=O)[C@H](C(C)C)N(C)C(=O)CN(C)C(=O)[C@@H]1N[C@@H]1C1COC1)C(=O)N1CCC[C@H](N1)C(=O)OCC(C)(C)C2 [Example 281] | < 5000 nM | 100 to 1000 nM | –
17 | CCn1c(-c2cccnc2[C@H](C)OC)c2c3cc(ccc31)-c1cc(O)cc(c1)C[C@H](NC(=O)[C@H](C(C)C)N(C)C(=O)CN(C)C(=O)[C@H]1N[C@H]1C1COC1)C(=O)N1CCC[C@H](N1)C(=O)OCC(C)(C)C2 [Example 282] | < 5000 nM | 1000 to 10000 nM | –
18 | CCn1c(-c2cccnc2[C@H](C)OC)c2c3cc(ccc31)-c1cc(O)cc(c1)C[C@H](NC(=O)[C@H](C(C)C)N(C)C(=O)CN(C)C(=O)[C@H]1N[C@@H]1C1COC1)C(=O)N1CCC[C@H](N1)C(=O)OCC(C)(C)C2 [Example 284] | < 5000 nM | 1000 to 10000 nM | –
